Assays:
mTORC1 = target: T1, mTORC1 (Homo sapiens, UniProt P42345+P62942); assay: Inhibition assay for mTORC1: phosphorylation of pS6K at Thr389, AlphaLISA SureFire in PC3 cells; type: cell-based; settings: PC3 cells, 24 hours treatment, pS6K Thr389; analogs substituted at C40 and C16 (C16 diastereomer mixtures not isolated); read-out: pIC50 mTORC1 (converted)
T1 construct: endogenous in cells; host or cells: PC3 cells (human prostate adenocarcinoma)
Experimental: (§1) The IC50s of the inhibition of mTORC1 and mTORC2 were determined in vitro by determining the phosphorylation of pS6K at position Thr389 (mTORC1 inhibition) and pAkt at Ser473 (mTORC2 inhibition). In vitro studies were performed with AiphaLISA® technology using PC3 cells (Prostate Adenocarcinoma; Human (Homo sapiens)). The cells were seeded in 96 well plates and were treated for 24 hours with the different compounds. […] All analysis were performed using GraphPad Prism 7.0 (GraphPad Software, San Diego, USA).
Tables 5-7 include PIC50 values for mTORC1 of selected compounds; with compounds having an PIC50 for mTORC1 of >9.5 as A, 8.5 to 9.5 as B, and less than 8.5 as C.

mTORC2 = target: T2, mTORC2 (Homo sapiens, UniProt P42345+P62942); assay: Inhibition assay for mTORC2: phosphorylation of pAkt at Ser473, AlphaLISA SureFire in PC3 cells; type: cell-based; settings: PC3 cells, 24 hours treatment, analogs substituted at C40 and C16 (C16 diastereomer mixtures not isolated), read-out: pIC50 mTORC2 (converted)
T2 construct: endogenous in cells; host or cells: PC3 cells (human prostate adenocarcinoma)
Experimental: as §1, with “USA). […]” for “USA).”

SMILES: CO[C@@H]1C[C@H](C[C@@H](C)[C@@H]2CC(=O)[C@H](C)/C=C(\C)[C@@H](O)[C@@H](OC)C(=O)[C@H](C)C[C@H](C)/C=C/C=C/C=C(\C)C(OCCO)C[C@@H]3CC[C@@H](C)[C@@](O)(O3)C(=O)C(=O)N3CCCCC3C(=O)O2)CC[C@H]1OC(=O)NCCN1CCCCC1 (stereo partly drawn) [Compound 72]
- IC50 (mTORC1): 0.316 to 3.16 nM
- IC50 (mTORC2): > 10000 nM

SMILES: CO[C@@H]1C[C@H](C[C@@H](C)[C@@H]2CC(=O)[C@H](C)/C=C(\C)[C@@H](O)[C@@H](OC)C(=O)[C@H](C)C[C@H](C)/C=C/C=C/C=C(\C)C(OCC3COC3)C[C@@H]3CC[C@@H](C)[C@@](O)(O3)C(=O)C(=O)N3CCCCC3C(=O)O2)CC[C@H]1OCCO (stereo partly drawn) [Compound 75]
- IC50 (mTORC1): 0.316 to 3.16 nM
- IC50 (mTORC2): 1000 to 10000 nM

SMILES: CO[C@@H]1C[C@H](C[C@@H](C)[C@@H]2CC(=O)[C@H](C)/C=C(\C)[C@@H](O)[C@@H](OC)C(=O)[C@H](C)C[C@H](C)/C=C/C=C/C=C(\C)C(OCCO)C[C@@H]3CC[C@@H](C)[C@@](O)(O3)C(=O)C(=O)N3CCCCC3C(=O)O2)CC[C@H]1OC(=O)NCCN1CCN(C)CC1 (stereo partly drawn) [Compound 76]
- IC50 (mTORC1): 0.316 to 3.16 nM
- IC50 (mTORC2): > 10000 nM

SMILES: CO[C@@H]1C[C@H](C[C@@H](C)[C@@H]2CC(=O)[C@H](C)/C=C(\C)[C@@H](O)[C@@H](OC)C(=O)[C@H](C)C[C@H](C)/C=C/C=C/C=C(\C)C(OCCO)C[C@@H]3CC[C@@H](C)[C@@](O)(O3)C(=O)C(=O)N3CCCCC3C(=O)O2)CC[C@H]1OC(=O)N(C)CCCN(C)C (stereo partly drawn) [Compound 77]
- IC50 (mTORC1): 0.316 to 3.16 nM
- IC50 (mTORC2): > 10000 nM

SMILES: CO[C@@H]1C[C@H](C[C@@H](C)[C@@H]2CC(=O)[C@H](C)/C=C(\C)[C@@H](O)[C@@H](OC)C(=O)[C@H](C)C[C@H](C)/C=C/C=C/C=C(\C)C(OC(C)C)C[C@@H]3CC[C@@H](C)[C@@](O)(O3)C(=O)C(=O)N3CCCCC3C(=O)O2)CC[C@H]1OC(=O)NCCc1ccccc1 (stereo partly drawn) [Compound 80]
- IC50 (mTORC1): 0.316 to 3.16 nM
- IC50 (mTORC2): > 10000 nM

SMILES: COCCOC1C[C@@H]2CC[C@@H](C)[C@@](O)(O2)C(=O)C(=O)N2CCCCC2C(=O)O[C@H]([C@H](C)C[C@@H]2CC[C@@H](OCCN3C[C@@H](C)O[C@@H](C)C3)[C@H](OC)C2)CC(=O)[C@H](C)/C=C(\C)[C@@H](O)[C@@H](OC)C(=O)[C@H](C)C[C@H](C)/C=C/C=C/C=C/1C (stereo partly drawn) [Compound 81]
- IC50 (mTORC1): 0.316 to 3.16 nM
- IC50 (mTORC2): 1000 to 10000 nM

SMILES: CO[C@@H]1C[C@H](C[C@@H](C)[C@@H]2CC(=O)[C@H](C)/C=C(\C)[C@@H](O)[C@@H](OC)C(=O)[C@H](C)C[C@H](C)/C=C/C=C/C=C(\C)C(OCCO)C[C@@H]3CC[C@@H](C)[C@@](O)(O3)C(=O)C(=O)N3CCCCC3C(=O)O2)CC[C@H]1OC(=O)NCCN1CCOCC1 (stereo partly drawn) [Compound 82]
- IC50 (mTORC1): 0.316 to 3.16 nM
- IC50 (mTORC2): 1000 to 10000 nM

SMILES: CO[C@@H]1C[C@H](C[C@@H](C)[C@@H]2CC(=O)[C@H](C)/C=C(\C)[C@@H](O)[C@@H](OC)C(=O)[C@H](C)C[C@H](C)/C=C/C=C/C=C(\C)C(OCCO)C[C@@H]3CC[C@@H](C)[C@@](O)(O3)C(=O)C(=O)N3CCCCC3C(=O)O2)CC[C@H]1OC(=O)N(C)CCO (stereo partly drawn) [Compound 83]
- IC50 (mTORC1): 0.316 to 3.16 nM
- IC50 (mTORC2): 1000 to 10000 nM

SMILES: CO[C@@H]1C[C@H](C[C@@H](C)[C@@H]2CC(=O)[C@H](C)/C=C(\C)[C@@H](O)[C@@H](OC)C(=O)[C@H](C)C[C@H](C)/C=C/C=C/C=C(\C)C(OCC3COC3)C[C@@H]3CC[C@@H](C)[C@@](O)(O3)C(=O)C(=O)N3CCCCC3C(=O)O2)CC[C@H]1OCCCO (stereo partly drawn) [Compound 84]
- IC50 (mTORC1): 0.316 to 3.16 nM
- IC50 (mTORC2): 1000 to 10000 nM

SMILES: COCCOC1C[C@@H]2CC[C@@H](C)[C@@](O)(O2)C(=O)C(=O)N2CCCCC2C(=O)O[C@H]([C@H](C)C[C@@H]2CC[C@@H](OCCCN3CCC(O)CC3)[C@H](OC)C2)CC(=O)[C@H](C)/C=C(\C)[C@@H](O)[C@@H](OC)C(=O)[C@H](C)C[C@H](C)/C=C/C=C/C=C/1C (stereo partly drawn) [Compound 85]
- IC50 (mTORC1): 0.316 to 3.16 nM
- IC50 (mTORC2): 1000 to 10000 nM

SMILES: CO[C@@H]1C[C@H](C[C@@H](C)[C@@H]2CC(=O)[C@H](C)/C=C(\C)[C@@H](O)[C@@H](OC)C(=O)[C@H](C)C[C@H](C)/C=C/C=C/C=C(\C)C(OCC3CCOCC3)C[C@@H]3CC[C@@H](C)[C@@](O)(O3)C(=O)C(=O)N3CCCCC3C(=O)O2)CC[C@H]1OCCO (stereo partly drawn) [Compound 86]
- IC50 (mTORC1): 0.316 to 3.16 nM
- IC50 (mTORC2): 1000 to 10000 nM

SMILES: CO[C@@H]1C[C@H](C[C@@H](C)[C@@H]2CC(=O)[C@H](C)/C=C(\C)[C@@H](O)[C@@H](OC)C(=O)[C@H](C)C[C@H](C)/C=C/C=C/C=C(\C)C(OCCO)C[C@@H]3CC[C@@H](C)[C@@](O)(O3)C(=O)C(=O)N3CCCCC3C(=O)O2)CC[C@H]1OCCCN1CCCCC1 (stereo partly drawn) [Compound 87, (1R,9S,12S,15R,16E,18R,19R,21R,23S,24E,26E,28E,32S,35R)-1,18-dihydroxy-30-(2-hydroxyethoxy)-19-methoxy-12-[(1R)-2-[(1S,3R,4R)-3-methoxy-4-[3-(1-piperidyl)propoxy]cyclohexyl]-1-methyl-ethyl]-15,17,21,23,29,35-hexamethyl-11,36-dioxa-4-azatricyclo[30.3.1.0^4,9]hexatriaconta-16,24,26,28-tetraene-2,3,10,14,20-pentone]
- IC50 (mTORC1): 0.316 to 3.16 nM
- IC50 (mTORC2): 1000 to 10000 nM

SMILES: CO[C@@H]1C[C@H](C[C@@H](C)[C@@H]2CC(=O)[C@H](C)/C=C(\C)[C@@H](O)[C@@H](OC)C(=O)[C@H](C)C[C@H](C)/C=C/C=C/C=C(\C)C(OC[C@H](O)c3ccccc3)C[C@@H]3CC[C@@H](C)[C@@](O)(O3)C(=O)C(=O)N3CCCCC3C(=O)O2)CC[C@H]1OCCO (stereo partly drawn) [Compound 88]
- IC50 (mTORC1): < 0.316 nM
- IC50 (mTORC2): 1000 to 10000 nM

SMILES: CO[C@@H]1C[C@H](C[C@@H](C)[C@@H]2CC(=O)[C@H](C)/C=C(\C)[C@@H](O)[C@@H](OC)C(=O)[C@H](C)C[C@H](C)/C=C/C=C/C=C(\C)C(OCCO)C[C@@H]3CC[C@@H](C)[C@@](O)(O3)C(=O)C(=O)N3CCCCC3C(=O)O2)CC[C@H]1OC(=O)NCCn1cnnn1 (stereo partly drawn) [Compound 89]
- IC50 (mTORC1): 0.316 to 3.16 nM
- IC50 (mTORC2): 1000 to 10000 nM

SMILES: CO[C@@H]1C[C@H](C[C@@H](C)[C@@H]2CC(=O)[C@H](C)/C=C(\C)[C@@H](O)[C@@H](OC)C(=O)[C@H](C)C[C@H](C)/C=C/C=C/C=C(\C)C(OC[C@@H](O)c3ccccc3)C[C@@H]3CC[C@@H](C)[C@@](O)(O3)C(=O)C(=O)N3CCCCC3C(=O)O2)CC[C@H]1OCCCO (stereo partly drawn) [Compound 90]
- IC50 (mTORC1): < 0.316 nM
- IC50 (mTORC2): 1000 to 10000 nM

SMILES: CO[C@@H]1C[C@H](C[C@@H](C)[C@@H]2CC(=O)[C@H](C)/C=C(\C)[C@@H](O)[C@@H](OC)C(=O)[C@H](C)C[C@H](C)/C=C/C=C/C=C(\C)C(OCC(C)(C)O)C[C@@H]3CC[C@@H](C)[C@@](O)(O3)C(=O)C(=O)N3CCCCC3C(=O)O2)CC[C@H]1OCCO (stereo partly drawn) [Compound 91]
- IC50 (mTORC1): 0.316 to 3.16 nM
- IC50 (mTORC2): 1000 to 10000 nM

SMILES: CO[C@@H]1C[C@H](C[C@@H](C)[C@@H]2CC(=O)[C@H](C)/C=C(\C)[C@@H](O)[C@@H](OC)C(=O)[C@H](C)C[C@H](C)/C=C/C=C/C=C(\C)C(OC[C@@H](O)c3ccccc3)C[C@@H]3CC[C@@H](C)[C@@](O)(O3)C(=O)C(=O)N3CCCCC3C(=O)O2)CC[C@H]1OCCCN1CCOCC1 (stereo partly drawn) [Compound 92]
- IC50 (mTORC1): < 0.316 nM
- IC50 (mTORC2): 1000 to 10000 nM

SMILES: CO[C@@H]1C[C@H](C[C@@H](C)[C@@H]2CC(=O)[C@H](C)/C=C(\C)[C@@H](O)[C@@H](OC)C(=O)[C@H](C)C[C@H](C)/C=C/C=C/C=C(\C)C(OCCc3ccccc3)C[C@@H]3CC[C@@H](C)[C@@](O)(O3)C(=O)C(=O)N3CCCCC3C(=O)O2)CC[C@H]1OC(=O)NCCN1CCOCC1 (stereo partly drawn) [Compound 93]
- IC50 (mTORC1): < 0.316 nM
- IC50 (mTORC2): < 1000 nM

Source: patent publication US12565505B2, “mTORC modulators and uses thereof” (Aeovian Pharmaceuticals, Inc., priority 2019, dated 2026)
